Values quoted from earlier work, collected in paper PMC3591469 (Bioorganic & medicinal chemistry letters, 2011).

System: recombinant Brd4 protein derived from bacteria
Conditions: cell-permeable small molecule

Cc1sc2c(c1C)C(c1ccc(Cl)cc1)=N[C@@H](CC(=O)OC(C)(C)C)c1nnc(C)n1-2 [JQ1]
inhibition of recombinant Brd4: selective and potent inhibitor
